Among the data in ChEMBL document CHEMBL5291721, “A preclinical secondary pharmacology resource illuminates target-adverse drug reaction associations of marketed drugs” (Nat Commun, 2023) are AC50 values, retold here.

The structures appear in SMILES notation.

One assay has as its target T1, Estrogen receptor (Homo sapiens, UniProt P03372).
T1 sequence (P03372 whole entry): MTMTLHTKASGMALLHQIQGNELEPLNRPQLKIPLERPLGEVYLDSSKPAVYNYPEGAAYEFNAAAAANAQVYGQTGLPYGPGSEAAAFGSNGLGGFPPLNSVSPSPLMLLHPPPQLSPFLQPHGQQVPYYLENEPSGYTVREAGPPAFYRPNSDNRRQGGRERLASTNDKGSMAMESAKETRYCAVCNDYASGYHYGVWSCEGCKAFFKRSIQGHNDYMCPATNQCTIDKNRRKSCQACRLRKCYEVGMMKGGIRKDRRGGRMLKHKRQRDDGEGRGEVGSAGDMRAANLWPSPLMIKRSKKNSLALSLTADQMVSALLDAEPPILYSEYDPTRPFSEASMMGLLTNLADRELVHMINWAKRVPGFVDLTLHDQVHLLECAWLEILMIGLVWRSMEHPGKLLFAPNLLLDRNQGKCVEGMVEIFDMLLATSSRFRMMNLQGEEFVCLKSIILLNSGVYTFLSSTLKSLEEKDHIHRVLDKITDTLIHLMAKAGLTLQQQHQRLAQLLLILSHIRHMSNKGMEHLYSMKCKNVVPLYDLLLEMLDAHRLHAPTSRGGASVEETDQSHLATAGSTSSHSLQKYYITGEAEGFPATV

Assay [1] deals with T2, Peroxisome proliferator-activated receptor gamma (Homo sapiens, UniProt P37231).
T2 sequence (P37231 whole entry): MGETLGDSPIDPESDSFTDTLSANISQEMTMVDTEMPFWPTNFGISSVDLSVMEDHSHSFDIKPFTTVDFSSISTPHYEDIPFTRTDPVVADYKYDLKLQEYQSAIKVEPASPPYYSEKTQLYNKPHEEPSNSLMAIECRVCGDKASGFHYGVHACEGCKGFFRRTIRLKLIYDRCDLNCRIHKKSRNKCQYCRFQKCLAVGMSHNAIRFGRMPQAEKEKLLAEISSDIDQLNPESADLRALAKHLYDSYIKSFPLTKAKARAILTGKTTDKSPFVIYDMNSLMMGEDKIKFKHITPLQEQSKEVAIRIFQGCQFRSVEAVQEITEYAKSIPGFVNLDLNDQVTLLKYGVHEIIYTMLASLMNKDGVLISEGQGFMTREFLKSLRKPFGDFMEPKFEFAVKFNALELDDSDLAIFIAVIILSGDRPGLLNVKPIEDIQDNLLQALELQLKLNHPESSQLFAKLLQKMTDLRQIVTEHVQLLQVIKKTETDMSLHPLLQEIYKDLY
It is filed as functional.

Assay [2] deals with T3, 5-hydroxytryptamine receptor 1A (Homo sapiens, UniProt P08908).
T3 sequence (P08908 whole entry): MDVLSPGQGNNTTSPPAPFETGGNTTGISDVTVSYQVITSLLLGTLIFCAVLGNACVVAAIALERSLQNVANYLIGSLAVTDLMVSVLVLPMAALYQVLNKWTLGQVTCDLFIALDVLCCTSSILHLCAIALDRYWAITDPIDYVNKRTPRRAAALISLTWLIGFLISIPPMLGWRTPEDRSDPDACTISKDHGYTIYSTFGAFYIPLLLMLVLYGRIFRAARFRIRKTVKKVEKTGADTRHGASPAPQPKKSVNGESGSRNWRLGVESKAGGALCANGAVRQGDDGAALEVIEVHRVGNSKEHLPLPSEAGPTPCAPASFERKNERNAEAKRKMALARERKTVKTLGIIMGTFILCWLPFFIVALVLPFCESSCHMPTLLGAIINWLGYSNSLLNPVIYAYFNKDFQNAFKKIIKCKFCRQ

In the next assay the target is T4, Progesterone receptor (Homo sapiens, UniProt P06401).
T4 sequence (P06401 whole entry): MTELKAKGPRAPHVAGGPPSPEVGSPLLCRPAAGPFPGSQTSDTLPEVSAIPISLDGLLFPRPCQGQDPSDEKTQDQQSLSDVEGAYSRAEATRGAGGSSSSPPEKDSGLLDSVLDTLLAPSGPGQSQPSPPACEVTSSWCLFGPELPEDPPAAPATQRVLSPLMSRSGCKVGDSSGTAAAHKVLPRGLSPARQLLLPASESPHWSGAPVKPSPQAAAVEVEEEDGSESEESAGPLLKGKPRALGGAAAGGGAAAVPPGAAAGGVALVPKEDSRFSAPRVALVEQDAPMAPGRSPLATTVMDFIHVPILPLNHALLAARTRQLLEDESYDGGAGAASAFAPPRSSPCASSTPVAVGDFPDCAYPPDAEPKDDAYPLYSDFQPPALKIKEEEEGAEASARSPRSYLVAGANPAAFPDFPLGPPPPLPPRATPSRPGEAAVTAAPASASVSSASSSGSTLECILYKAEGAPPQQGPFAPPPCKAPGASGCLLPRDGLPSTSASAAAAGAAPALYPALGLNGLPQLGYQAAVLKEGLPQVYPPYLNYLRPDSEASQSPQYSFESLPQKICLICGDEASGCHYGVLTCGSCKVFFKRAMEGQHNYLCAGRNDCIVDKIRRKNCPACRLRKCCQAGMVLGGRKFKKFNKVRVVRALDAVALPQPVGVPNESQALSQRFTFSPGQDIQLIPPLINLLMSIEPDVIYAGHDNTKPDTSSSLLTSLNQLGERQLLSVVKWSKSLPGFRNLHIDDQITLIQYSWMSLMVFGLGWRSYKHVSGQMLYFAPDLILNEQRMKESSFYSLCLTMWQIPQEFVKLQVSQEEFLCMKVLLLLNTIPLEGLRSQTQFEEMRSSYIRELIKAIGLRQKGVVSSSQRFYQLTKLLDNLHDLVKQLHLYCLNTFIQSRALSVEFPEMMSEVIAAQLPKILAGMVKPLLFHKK
Further: assay procedure not described here.

Broadly, the AC50 is the midpoint of the concentration-response curve, whichever way the signal moves. Lower therefore signals greater potency. Turning to `COc1ccc(CC2c3cc(OC)c(OC)cc3CC[N+]2(C)CCC(=O)OCCCCCOC(=O)CC[N+]2(C)CCc3cc(OC)c(OC)cc3C2Cc2ccc(OC)c(OC)c2)cc1OC` (stereo unspecified), the half-maximal activity concentration (AC50) at Estrogen receptor was more than 30 µM.
Molecule `CCN1CCN(Cc2ccc(Nc3ncc(F)c(-c4cc(F)c5nc(C)n(C(C)C)c5c4)n3)nc2)CC1` [ABEMACICLIB] gave a concentration at half-maximal activity (AC50) in assay [1] of more than 30 µM.
In the case of `CCCN(CCC)C(=O)Cc1c(-c2ccc(Cl)cc2)nc2ccc(Cl)cn12` [ALPIDEM], the AC50 at Estrogen receptor was more than 30 µM; in assay [2], more than 10 µM.
Consider `COc1ccccc1Oc1c(NS(=O)(=O)c2ccc(C(C)(C)C)cc2)nc(-c2ncccn2)nc1OCCO` [BOSENTAN], for which the AC50 on Estrogen receptor is more than 30 µM; at Progesterone receptor, more than 30 µM; in assay [2], more than 10 µM.
As to `COc1cc2nccc(Oc3ccc(NC(=O)C4(C(=O)Nc5ccc(F)cc5)CC4)cc3)c2cc1OC` [CABOZANTINIB], in assay [1], the half-maximal activity concentration (AC50) was more than 30 µM.
In turn, `CC(C(=O)O)c1ccc2c(c1)[nH]c1ccc(Cl)cc12` (stereo unspecified) [CARPROFEN] came in with a concentration at half-maximal activity (AC50) on Estrogen receptor of more than 30 µM.
With `COc1ccccc1OCCNCC(O)COc1cccc2[nH]c3ccccc3c12` (stereo unspecified) [CARVEDILOL], the AC50 in assay [1] was 28 µM; at Estrogen receptor, more than 30 µM; on Progesterone receptor it was more than 30 µM; in assay [2] it was 0.02 µM.
As to `O=C1CCc2cc(OCCCCc3nnnn3C3CCCCC3)ccc2N1` [CILOSTAZOL], the figures for the AC50 (at Estrogen receptor; at Progesterone receptor; in assay [2]) were more than 30 µM, more than 30 µM and more than 10 µM, respectively.
As to `C[C@@H](Oc1cc(-c2cnn(C3CCNCC3)c2)cnc1N)c1c(Cl)ccc(F)c1Cl` [CRIZOTINIB], the concentration at half-maximal activity (AC50) in assay [1] is more than 30 µM; in assay [2], more than 10 µM.
As for `CC(C)N(CCC(C(N)=O)(c1ccccc1)c1ccccn1)C(C)C` (stereo unspecified) [DISOPYRAMIDE], the concentration at half-maximal activity (AC50) at Progesterone receptor is more than 30 µM; in assay [2], more than 10 µM.
The like results for `C[C@H]1c2cccc(O)c2C(=O)C2=C(O)[C@]3(O)C(=O)C(C(N)=O)=C(O)[C@@H](N(C)C)[C@@H]3[C@@H](O)[C@@H]21` [DOXYCYCLINE] were, in that order, more than 30 µM and more than 10 µM.
Regarding `C[C@]12C=CC(=O)N[C@@H]1CC[C@@H]1[C@@H]2CC[C@]2(C)[C@@H](C(=O)Nc3cc(C(F)(F)F)ccc3C(F)(F)F)CC[C@@H]12` [DUTASTERIDE], at Estrogen receptor, the AC50 was more than 10 µM.
For the molecule `CN1C[C@H](C(=O)N[C@]2(C)O[C@@]3(O)[C@@H]4CCCN4C(=O)[C@H](Cc4ccccc4)N3C2=O)C=C2c3cccc4[nH]cc(c34)C[C@H]21` [ERGOTAMINE], the AC50 in assay [1] is more than 30 µM.
For the molecule `CC(C)Cc1ccc(C(C)C(=O)O)cc1` (stereo unspecified) [IBUPROFEN], the figures for the AC50 (at Estrogen receptor; at Progesterone receptor; in assay [2]) were 21.3 µM, more than 30 µM and more than 10 µM, respectively.
`CC(=O)O[C@]1(C(C)=O)CC[C@H]2[C@@H]3C=C(C)C4=CC(=O)CC[C@@H]4[C@H]3CC[C@@]21C` [NOMEGESTROL ACETATE]: at Estrogen receptor, the AC50 was more than 30 µM.
Molecule `CN1C(C(=O)Nc2ccccn2)=C(O)c2ccccc2S1(=O)=O` [PIROXICAM] yielded a half-maximal activity concentration (AC50) on Estrogen receptor of more than 10 µM.
Take `C=C[C@H]1C[N@@]2CC[C@H]1C[C@@H]2[C@@H](O)c1ccnc2ccc(OC)cc12` [QUINIDINE]: the concentration at half-maximal activity (AC50) at Estrogen receptor is more than 30 µM; on Progesterone receptor it was more than 30 µM; in assay [2], more than 10 µM.
In the case of `CO[C@H]1/C=C/O[C@@]2(C)Oc3c(C)c(O)c4c(O)c(c(/C=N/N5CCN(C)CC5)c(O)c4c3C2=O)NC(=O)/C(C)=C\C=C\[C@H](C)[C@H](O)[C@@H](C)[C@@H](O)[C@@H](C)[C@H](OC(C)=O)[C@@H]1C` [RIFAMPIN], the AC50 at Progesterone receptor was more than 30 µM; in assay [2], more than 10 µM.
At Estrogen receptor, `CC(N)C12CC3CC(CC(C3)C1)C2` (stereo unspecified) [RIMANTADINE] had an AC50 of more than 10 µM.
Regarding `CN(C)CCc1c[nH]c2ccc(Cn3cncn3)cc12` [RIZATRIPTAN], at Progesterone receptor, the AC50 is more than 30 µM.
In the case of `CC(C)c1nc(N(C)S(C)(=O)=O)nc(-c2ccc(F)cc2)c1/C=C/[C@@H](O)C[C@@H](O)CC(=O)O` [ROSUVASTATIN], the AC50 (in assay [1]; on Estrogen receptor) was more than 30 µM throughout.
Turning to `N[C@@H](CC(=O)N1CCn2c(nnc2C(F)(F)F)C1)Cc1cc(F)c(F)cc1F` [SITAGLIPTIN], the AC50 was more than 30 µM in assay [1] and more than 10 µM in assay [2].
Consider `OC[C@H]1O[C@@](CO)(O[C@H]2O[C@H](CO)[C@@H](O)[C@H](O)[C@H]2O)[C@@H](O)[C@@H]1O` [SUCROSE], for which the AC50 (in assay [1]; at Estrogen receptor) was more than 30 µM in each case.
On to `Nc1ccc(S(=O)(=O)Nc2nccs2)cc1` [SULFATHIAZOLE], for which the figures for the half-maximal activity concentration (AC50) (on Estrogen receptor; on Progesterone receptor; in assay [2]) were more than 30 µM, more than 30 µM and more than 10 µM, respectively.
In the case of `O=C1C(CC[S+]([O-])c2ccccc2)C(=O)N(c2ccccc2)N1c1ccccc1` (stereo unspecified) [SULFINPYRAZONE], on Estrogen receptor, the AC50 is more than 10 µM.
Consider `CCN(CC)CCNC(=O)c1c(C)[nH]c(/C=C2\C(=O)Nc3ccc(F)cc32)c1C` [SUNITINIB], for which the AC50 in assay [2] was determined as 7.13 µM.
In the case of `C=CC[C@@H]1/C=C(\C)C[C@H](C)C[C@H](OC)[C@H]2O[C@@](O)(C(=O)C(=O)N3CCCC[C@H]3C(=O)O[C@H](/C(C)=C/[C@@H]3CC[C@@H](O)[C@H](OC)C3)[C@H](C)[C@@H](O)CC1=O)[C@H](C)C[C@@H]2OC` [TACROLIMUS ANHYDROUS], the AC50 was more than 30 µM in assay [1], more than 30 µM on Estrogen receptor, more than 30 µM at Progesterone receptor and more than 10 µM in assay [2].
Turning to `COc1cc2nc(N3CCN(C(=O)C4CCCO4)CC3)nc(N)c2cc1OC` (stereo unspecified) [TERAZOSIN], the values for the AC50 (at Estrogen receptor; in assay [2]) were more than 30 µM and more than 10 µM, respectively.
Regarding `CC(S)C(=O)NCC(=O)O` (stereo unspecified) [TIOPRONIN], in assay [1], the AC50 is more than 30 µM.
The molecule `C[C@H](CCC(=O)O)[C@H]1CC[C@H]2[C@@H]3[C@@H](O)C[C@@H]4C[C@H](O)CC[C@]4(C)[C@H]3CC[C@]12C` [URSODIOL] yielded an AC50 in assay [1] of more than 30 µM.
Regarding `Cc1onc(-c2ccccc2)c1-c1ccc(S(N)(=O)=O)cc1` [VALDECOXIB], the figures for the concentration at half-maximal activity (AC50) (in assay [1]; on Progesterone receptor; in assay [2]) were more than 30 µM, more than 30 µM and more than 10 µM, respectively.
Take `CCCC(CCC)C(=O)O` [VALPROIC ACID]: the values for the half-maximal activity concentration (AC50) (on Estrogen receptor; on Progesterone receptor; in assay [2]) were more than 30 µM, more than 30 µM and more than 10 µM, respectively.
